Each compound was assayed on isolierten Rattenherzen (assay: Cardioprotective effect on isolated rat hearts under ischaemia followed by reperfusion (duration of arrhythmia phase)). Details: konz. 3,3 µg/ml; isolated rat heart, one hour ischaemia (flow 0.15 ml/min), then reperfusion.
Parameters: species or system Ratten
Excerpt: Wird ein längere Zeit unter ischämischen Bedingungen gehaltenes, isoliertes Herz wieder normal perfundiert, so tritt keine sofortige Normalisierung der Herzfunktion ein. Es findet sich vielmehr eine vorübergehende Periode, die durch Kontraktur und Arrhytmien gekennzeichnet ist. Diese Arrhythmiephase ist durch Veränderungen von Funktion und Struktur der Myocardzelle mit intrazellulärer Calciumüberladung bedingt (Hess u. Manson, J. Mol. Cell. Cardiol. 16, 969, 1984). Cardioprotektiv wirksame Verbindungen wie Verapamil und Diltiazem verringern die Calciumüberladung und verbessern das Kontraktionsverhalten bei Reperfusion (Watts et al. Am. J. Physiol. 238, H 909, 1980; Meno et al. Am. J. Physiol. 247, H 380, 1984). Die cardioprotektive Wirkung wurde an isolierten Rattenherzen unter Ischämie und anschließender Reperfusion untersucht. Unter Kontrollbedingungen findet sich nach einstündiger Ischämie (Fluß 0.15 ml,min) eine Periode unregelmäßiger Herztätigkeit von 10-15 Minuten. Infusion von cardioprotektiven Verbindungen bewirkt eine signifikante Verkürzung dieser Periode.

SMILES | Verkürzung der Arrhythmie-phase von 11-13 min auf
COc1cc2c(cc1OC)C(C(CCc1ccccc1)C(=O)NCCc1ccncc1)=NCC2 (stereo not drawn) [L] | 5,0 min
COc1cc2c(cc1OC)C1(CCCC1)CNC2=CC1=NCC2(CCCC2)c2cc(OC)c(OC)cc21 [Verbindung A] | 4,0 min

Same assay, conditions: konz. 6,6 µg/ml; isolated rat heart, one hour ischaemia (flow 0.15 ml/min), then reperfusion

SMILES | Verkürzung der Arrhythmie-phase von 11-13 min auf
CCCCC(C(=O)NC(C)CCCC(C)C)C1=NCCc2cc(OC)c(OC)cc21 (stereo not drawn) [K] | 3,1 min

Same assay, conditions: konz. 13,3 µg/ml; isolated rat heart, one hour ischaemia (flow 0.15 ml/min), then reperfusion

SMILES | Verkürzung der Arrhythmie-phase von 11-13 min auf
COc1cc2c(cc1OC)C(CC(=O)N1CCOCC1)=NCC2 [Verbindung I] | 3,5 min

The compounds below were run on myocardiale Radiocalciumaufnahme (assay: Cardioprotective effect in conscious rats: inhibition of isoprenaline-induced myocardial radiocalcium uptake (method of Arndts)). Details: oral administration (perorale Wirkstoffabgabe), dose inhibiting by 50 % the myocardial radiocalcium uptake caused by 30 mg/kg s.c. Isoprenalin.
Assay type: in vivo, Ratten
Parameters: unit not given here
Excerpt: Insbesondere weisen diese Substanzen eine deutliche cardioprotektive Wirkung auf, die wie folgt bestimmt wurde: • Bekanntlich ist der myocardiale Ca(2+)-Gehalt ein Maß für die hypoxische bzw. durch toxische Catecholamindosen hervorgerufene Herzschädigung (Higgins et al., Mol. Cell. Cardiol. 10, 427-438, 1984; Nakanishi et al., Am. J. Physiol. 242, 437-449, 1982; Fleckenstein, A. Vorträge der Erlanger Physiol. Tagung 1970, Edit. Keidel, Springer Verlag Berlin, Heidelberg, New York, 1971). Umgekehrt ist die Inhibition der hypoxischen oder Isoprenalin-bedingten myocardialen Calciumaufnahme ein Maß für die cardioprotektive Effektivität von Calciumantagonisten (Fleckenstein, s.o.), von Calmodulininhibitoren (Higgins) und anderen Pharmaka, z.B. Betaadrenolytika (Arndts, Arzneimittelforschung 25, 1279-1284, 1975). Die cardioprotektive Wirkung wurde an wachen Ratten nach subcutaner oder peroraler Wirkstoffabgabe anhand der von Arndts (s.o.) beschriebenen Methode festgestellt und die Wirkungsstärke der Testsubstanzen als Hso-Wert angegeben. Dieser Wert entspricht der Dosis, die die durch eine Gabe von 30 mg/kg s.c. Isoprenalin bedingte myocardiale Radiocalciumaufnahme zu 50 % hemmt.

SMILES | H50-Wert
COc1cc2c(cc1OC)C(CC(=O)NN(C)C)=NCC2 [B] | 2.26
CCCCC(C(=O)NCC(C)C)C1=NCCc2cc(OC)c(OC)cc21 (stereo not drawn) [C, α-Isobutylaminocarbonyl-1-pentyl-6,7-dimethoxy-3,4-dihydro-isochinolin] | 1.34
CCCCC(C(=O)NC(C)C)C1=NCCc2cc(OC)c(OC)cc21 (stereo not drawn) [D] | 2.25
CCCCC(C(=O)NCCc1ccccn1)C1=NCCc2cc(OC)c(OC)cc21 (stereo not drawn) [E] | 2.29
CCCCC(C(=O)NC)C1=NCCc2cc(OC)c(OC)cc21 (stereo not drawn) [F] | 1.41
CCCCC(C(=O)NCCOC)C1=NCCc2cc(OC)c(OC)cc21 (stereo not drawn) [G] | 2.23
COc1cc2c(cc1OC)C1(CCCC1)CNC2=CC1=NCC2(CCCC2)c2cc(OC)c(OC)cc21 [Verbindung A] | 1.25
CCCCC(C(=O)NCC(C)O)C1=NCCc2cc(OC)c(OC)cc21 (stereo not drawn) [Verbindung H] | 2.15

From patent EP0288048A2, “Benzo- and thieno-3,4-dihydropyridine derivates, processes for their preparation, and medicaments containing them” (BOEHRINGER INGELHEIM KG, priority 1987, dated 1988)
